In US6777411B1, “Fungicide mixtures based on pyride amides and morpholine derivatives or piperidine derivatives” (priority 1997, dated 2004):

Legend:
[1] = system: Erysiphe graminis forma specialis tritici; assay: Activity against powdery mildew of wheat; assay type: in vivo; conditions: wheat seedlings "Kanzler", sprayed 24 hours before inoculation, evaluated after 7 days
Method: (§1) Evaluation is carried out by determining the infected leaf areas in percent. These percentages are converted into efficacies. The efficacy (W) is calculated as follows using Abbot's formula: […]
(§2) α corresponds to the fungal infection of the treated plants in % and β corresponds to the fungal infection of the untreated (control) plants in % An efficacy of 0 means that the infection level of the treated plants corresponds to that of the untreated control plants; an efficacy of 100 means that the treated plants were not infected.
(§3) Colby formula: E=x+y−x·y/100
Activity Against Powdery Mildew of Wheat
The test plants were subsequently kept in a greenhouse at 20 to 24° C. and 60 to 90% relative atmospheric humidity. After 7 days, the extent of the mildew development was determined visually in % infection of the total leaf area.

Puccinia recondita = assay: Curative activity against Puccinia recondita on wheat (wheat leaf rust); assay type: in vivo; conditions: wheat seedlings "Kanzler", sprayed 1 day after infection, evaluated after 7 days
Method: as §1, §2, §3
Curative Activity Against Puccinia recondita on Wheat (Wheat Leaf Rust) Leaves of potted wheat seedlings of the variety “Kanzler” were dusted with spores of leaf rust (Puccinia recondita). […] During this time, the spores germinated and the germinal tubes penetrated into the leaf tissue. […] After the spray coating had dried on, the test plants were cultivated in a greenhouse at from 20 to 22° C. and from 65 to 70% of relative atmospheric humidity for 7 days. Thereafter, the extent of rust fungus development on the leaves was determined.

SMILES	Efficacy in % of the untreated control ([1]; 4 ppm in the spray liquor) [%]	Efficacy in % of the untreated control ([1]; 16 ppm in the spray liquor) [%]	Efficacy in % of the untreated control (Puccinia recondita; 16 ppm in the spray liquor) [%]	Efficacy in % of the untreated control (Puccinia recondita; 63 ppm in the spray liquor) [%]	Efficacy in % of the untreated control ([1]; 1 ppm in the spray liquor) [%]
O=C(Nc1ccccc1-c1ccc(F)cc1)c1cccnc1Cl [Compound I.1]	0	0	0	0	
CC(Cc1ccc(C(C)(C)C)cc1)CN1C[C@@H](C)O[C@@H](C)C1 (stereo partly shown) [Compound IIa, fenpropimorph]	20		20		0
O=C(Nc1ccccc1-c1ccc(Cl)cc1)c1cccnc1Cl [Compound I.2]	0		0		0
CC(Cc1ccc(C(C)(C)C)cc1)CN1CCCCC1 (stereo not shown) [Compound IIb, fenpropidin]	30		20		0
CCCCCCCCCCCCCN1CC(C)OC(C)C1 (stereo not shown) [Compound IIc, tridemorph]	0	20		0	
